Measurements from the supplement of paper PMC10307832.

Legend:
Experiment in all cases: relative viability (nuclei count vs DMSO), 5 days (fraction); higher = more cells survive
[1] = compound: O=C(NCCCNc1nc(Nc2cccc(NC(=O)N3CCCC3)c2)ncc1I)c1cccs1 [BX 795]
How it was run: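 Cells of lung cancer lines were placed in 1536-well plates and kept overnight at 37 °C. Pinning then delivered five library-drug doses (not always all listed), spaced by √10, onto plates anchored with vehicle, and the cells were left 5 days without changing medium. One step fixed, permeabilised and stained them with Hoechst, and MetaXpress counted nuclei in 4× images. Viability, as a median over plates, is treated-well nuclei divided by vehicle-well nuclei, with acceptance only at control CV below 25% and at least one doubling.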

[2] = compound: O=C(NCCCNc1nc(Nc2cccc(NC(=O)N3CCCC3)c2)ncc1I)c1cccs1 [BX 795] + CC(C)C[C@H](NC(=O)[C@H](Cc1ccccc1)NC(=O)c1cnccn1)B(O)O [Bortezomib] (partner 0.002 µM)
How it was run: (§1)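 After 5 days of treatment, lung cancer cells in 1536-well plates were fixed and stained in a single step (final 0.05% Triton X-100, 1% formaldehyde, 1 ug/ml Hoechst) and their nuclei counted on 4× images. Treatment had been applied by pin tool the day after seeding as one drug alone or as a fixed anchor-drug dose with five library-drug doses (not always all listed) in √10 steps. Relative viability is the nuclei count of treated wells divided by that of vehicle wells, and values are medians of duplicate plates.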

[3] = compound: O=C(NCCCNc1nc(Nc2cccc(NC(=O)N3CCCC3)c2)ncc1I)c1cccs1 [BX 795] + CC1(C)CCC(c2ccc(Cl)cc2)=C(CN2CCN(c3ccc(C(=O)NS(=O)(=O)c4ccc(N[C@H](CCN5CCOCC5)CSc5ccccc5)c(S(=O)(=O)C(F)(F)F)c4)cc3)CC2)C1 [Navitoclax] (partner 0.5 µM)
How it was run: as §1

[4] = compound: O=C(NCCCNc1nc(Nc2cccc(NC(=O)N3CCCC3)c2)ncc1I)c1cccs1 [BX 795] + COc1cc2c(Oc3ccc(NC(=O)C4(C(=O)Nc5ccc(F)cc5)CC4)cc3F)ccnc2cc1OCCCN1CCOCC1 [Foretinib] (partner 0.25 µM)
How it was run: as §1

[5] = compound: O=C(NCCCNc1nc(Nc2cccc(NC(=O)N3CCCC3)c2)ncc1I)c1cccs1 [BX 795] + CS(=O)(=O)CCNCc1ccc(-c2ccc3ncnc(Nc4ccc(OCc5cccc(F)c5)c(Cl)c4)c3c2)o1 [Lapatinib] (partner 2 µM)
How it was run: as §1

[6] = compound: O=C(NCCCNc1nc(Nc2cccc(NC(=O)N3CCCC3)c2)ncc1I)c1cccs1 [BX 795] + CS(=O)(=O)N1CCN(Cc2cc3nc(-c4cccc5[nH]ncc45)nc(N4CCOCC4)c3s2)CC1 [Pictilisib] (partner 1 µM)
How it was run: as §1

[7] = compound: O=C(NCCCNc1nc(Nc2cccc(NC(=O)N3CCCC3)c2)ncc1I)c1cccs1 [BX 795] + C[C@@H](Oc1cc(-c2cnn(C3CCNCC3)c2)cnc1N)c1c(Cl)ccc(F)c1Cl [Crizotinib] (partner 1 µM)
How it was run: as §1

[8] = compound: O=C(NCCCNc1nc(Nc2cccc(NC(=O)N3CCCC3)c2)ncc1I)c1cccs1 [BX 795] + C[C@]1(O)C[C@@H](c2nc(-c3ccc4ccc(-c5ccccc5)nc4c3)c3c(N)nccn32)C1 [Linsitinib] (partner 1 µM)
How it was run: as §1

[9] = compound: O=C(NCCCNc1nc(Nc2cccc(NC(=O)N3CCCC3)c2)ncc1I)c1cccs1 [BX 795] + Cc1nc(NC(=O)N2CCC[C@H]2C(N)=O)sc1-c1ccnc(C(C)(C)C(F)(F)F)c1 [Alpelisib] (partner 2 µM)
How it was run: as §1

[10] = compound: O=C(NCCCNc1nc(Nc2cccc(NC(=O)N3CCCC3)c2)ncc1I)c1cccs1 [BX 795] + NC(=O)Nc1cc(-c2cccc(F)c2)sc1C(=O)N[C@H]1CCCNC1 [AZD7762] (partner 0.2 µM)
How it was run: as §1

[11] = compound: O=C(NCCCNc1nc(Nc2cccc(NC(=O)N3CCCC3)c2)ncc1I)c1cccs1 [BX 795] + O=C(c1cc(Cc2n[nH]c(=O)c3ccccc23)ccc1F)N1CCN(C(=O)C2CC2)CC1 [Olaparib] (partner 8 µM)
How it was run: as §1

## NCI-H1703
[1]; 0.04 µM
  relative viability: 0.469
[1]; 0.1265 µM
  relative viability: 0.806
[1]; 0.4 µM
  relative viability: 0.236
[1]; 1.265 µM
  relative viability: 0.298
[2]; first compound 0.04 µM
  relative viability: 0.272
[2]; first compound 0.1265 µM
  relative viability: 0.223
[2]; first compound 0.4 µM
  relative viability: 0.167
[2]; first compound 1.265 µM
  relative viability: 0.159
[3]; first compound 0.04 µM
  relative viability: 0.8
[3]; first compound 0.1265 µM
  relative viability: 1
[3]; first compound 0.4 µM
  relative viability: 0.22
[3]; first compound 1.265 µM
  relative viability: 0.289
[4]; first compound 0.1265 µM
  relative viability: 0.296
[4]; first compound 0.4 µM
  relative viability: 0.274
[4]; first compound 1.265 µM
  relative viability: 0.27
[5]; first compound 0.04 µM
  relative viability: 0.729
[5]; first compound 0.1265 µM
  relative viability: 1.11
[5]; first compound 0.4 µM
  relative viability: 0.284
[5]; first compound 1.265 µM
  relative viability: 0.243
[6]; first compound 0.1265 µM
  relative viability: 0.201
[6]; first compound 0.4 µM
  relative viability: 0.222
[6]; first compound 1.265 µM
  relative viability: 0.185
[7]; first compound 0.04 µM
  relative viability: 0.317
[7]; first compound 0.1265 µM
  relative viability: 0.453
[7]; first compound 0.4 µM
  relative viability: 0.148
[7]; first compound 1.265 µM
  relative viability: 0.179
[8]; first compound 0.1265 µM
  relative viability: 0.622
[8]; first compound 0.4 µM
  relative viability: 0.185
[8]; first compound 1.265 µM
  relative viability: 0.224
[9]; first compound 0.04 µM
  relative viability: 0.211
[9]; first compound 0.1265 µM
  relative viability: 0.286
[9]; first compound 0.4 µM
  relative viability: 0.194
[9]; first compound 1.265 µM
  relative viability: 0.204
[10]; first compound 0.04 µM
  relative viability: 0.138
[10]; first compound 0.1265 µM
  relative viability: 0.115
[10]; first compound 0.4 µM
  relative viability: 0.148
[10]; first compound 1.265 µM
  relative viability: 0.156
[11]; first compound 0.1265 µM
  relative viability: 0.283
[11]; first compound 0.4 µM
  relative viability: 0.229
[11]; first compound 1.265 µM
  relative viability: 0.152
